Data from patent publication US10251394B2, “Molecules having pesticidal utility, and intermediates, compositions, and processes, related thereto” (Dow AgroSciences LLC, priority 2016, dated 2019).

Assays:
Assay type in all cases: in vivo
[1] = system: Beet Armyworm (Spodoptera exigua); assay: Bioassay on Beet Armyworm (BAW), 128-well diet tray assay; details: Beet Armyworm, Table ABC, read-out: BAW rating
Method in brief: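 Second-instar larvae (one to five per well) placed on artificial diet surface-treated with 50 μg/cm^2 test molecule in 90:10 acetone-water, dried, eight wells per molecule. Held at 25° C, 14:10 light-dark, five to seven days; percent mortality recorded per well and averaged across the eight wells.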

[2] = system: Cabbage Looper (Trichoplusia ni); assay: Bioassay on Cabbage Looper (CL), 128-well diet tray assay; details: Cabbage Looper, Table ABC, read-out: CL rating
Method in brief: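 Second-instar larvae, one to five per well, placed on artificial diet surface-treated with 50 μg/cm^2 compound in acetone-water, eight wells per compound. Held 5-7 days at 25° C, 14:10 light-dark; percent mortality per well averaged across wells.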

[3] = system: Green Peach Aphid (Myzus persicae); assay: Bioassay on Green Peach Aphid (GPA), foliar spray on cabbage seedlings; details: 72 h, Table ABC, read-out: GPA rating
Protocol: Example B: Bioassays on Green Peach Aphid (Myzus Persicae, MYZUPE) (“GPA”) Certain molecules disclosed in this document were tested against GPA using procedures described in the following example. In the reporting of the results, the “GPA & YFM Rating Table” was used (See Table Section). Cabbage seedlings grown in 3-inch pots, with 2-3 small (3-5 cm) true leaves, were used as test substrate. The seedlings were infested with 20-50 GPA (wingless adult and nymph stages) one day prior to chemical application. Four pots with individual seedlings were used for each treatment. Test molecules (2 mg) were dissolved in 2 mL of acetone/methanol (1:1) solvent, forming stock solutions of 1000 ppm test molecule. The stock solutions were diluted 5× with 0.025% Tween 20 in water to obtain the solution at 200 ppm test molecule. A hand-held aspirator-type sprayer was used for spraying a solution to both sides of […] leaves until runoff. Reference plants (solvent check) were sprayed with the diluent only containing 20% by volume of acetone/methanol (1:1) solvent. Treated plants were held in a holding room for three days at approximately 25° C. and ambient relative humidity (RH) prior to grading. Evaluation was conducted by counting the number of live aphids per plant under a microscope. Percent Control was measured by using Abbott's correction formula (W. S. Abbott, “A Method of Computing the Effectiveness of an Insecticide” J. Econ. Entomol. 18 (1925), pp. 265-267) as follows. Corrected % Control=100*(X−Y)/X • where • X=No. of live aphids on solvent check plants and • Y=No. of live aphids on treated plants The results are indicated in the table entitled “Table ABC: Biological Results” (See Table Section).

[4] = system: Yellow Fever Mosquito (Aedes aegypti); assay: Bioassay on Yellow Fever Mosquito (YFM) larvae, 96-well plate; details: Table ABC
Method in brief: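 About 1-day-old larvae in water with liver powder were added to wells holding compound from a 4000 ppm DMSO master diluted in 90:10 water:acetone. Plates covered and kept at room temperature for 3 days, then each well scored for mortality on a rating scale.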

SMILES | pest or weed control at 50 µg/cm2 [1] [%] | pest or weed control at 50 µg/cm2 [2] [%] | pest or weed control at 200 µg/mL [3] [%] | YFM rating [4]
C=CCc1c(Cl)cc(C(/C=C(\F)c2ccc(C(=O)N[C@H](C)C(=O)NCC(F)(F)F)c(C(F)(F)F)c2)C(F)(F)F)cc1Cl (stereo partly drawn) [F146, 4-((Z)-3-(4-Allyl-3,5-dichlorophenyl)-1,4,4,4-tetrafluorobut-1-en-1-yl)-N—((R)-1-oxo-1-((2,2,2-trifluoroethyl)amino)propan-2-yl)-2-(trifluoromethyl)benzamide] | 50 to 100 | 50 to 100 | 0 to 80 | B (More than 0-Less than 80)
O=C(N[C@@H]1CON(CC(F)(F)F)C1=O)c1ccc(/C(F)=C/C(c2cc(F)c(F)c(F)c2)C(F)(F)F)cc1C(F)(F)F (stereo partly drawn) [F155, N—((R)-3-Oxo-2-(2,2,2-trifluoroethyl)isoxazolidin-4-yl)-4-((Z)-1,4,4,4-tetrafluoro-3-(3,4,5-trifluorophenyl)but-1-en-1-yl)-2-(trifluoromethyl)benzamide] | 50 to 100 | 50 to 100 | 80 to 100 | A (80-100)
O=C(CNC(=O)c1ccc(/C(F)=C/C(c2cc(F)c(F)c(F)c2)C(F)(F)F)cc1C(F)(F)F)NCC(F)(F)F (stereo not drawn) [F160, (Z)—N-(2-Oxo-2-((2,2,2-trifluoroethyl)amino)ethyl)-4-(1,4,4,4-tetrafluoro-3-(3,4,5-trifluorophenyl)but-1-en-1-yl)-2-(trifluoromethyl)benzamide] | 50 to 100 | 50 to 100 | 80 to 100 | A (80-100)
CCN(CC(F)(F)F)C(=O)CNC(=O)c1ccc(/C(F)=C/C(c2cc(Cl)c(Cl)c(Cl)c2)C(F)(F)F)cc1C(F)(F)F (stereo not drawn) [F167, (Z)—N-(2-(ethyl(2,2,2-trifluoroethyl)amino)-2-oxoethyl)-4-(1,4,4,4-tetrafluoro-3-(3,4,5-trichlorophenyl)but-1-en-1-yl)-2-(trifluoromethyl)benzamide] | 50 to 100 | 50 to 100 | 80 to 100 | A (80-100)
O=C(N[C@@H]1CON(CC(F)(F)F)C1=O)c1ccc(/C(F)=C/C(c2cc(Cl)c(Cl)c(Cl)c2)C(F)F)cc1C(F)(F)F (stereo partly drawn) [F177, N—((R)-3-Oxo-2-(2,2,2-trifluoroethyl)isoxazolidin-4-yl)-4-((Z)-1,4,4-trifluoro-3-(3,4,5-trichlorophenyl)but-1-en-1-yl)-2-(trifluoromethyl)benzamide] | 50 to 100 | 50 to 100 | 80 to 100 | A (80-100)
O=C(N[C@@H]1CON(CC(F)(F)F)C1=O)c1ccc(/C(F)=C/C(c2ccc(C(F)(F)F)c(Cl)c2)C(F)(F)F)cc1C(F)(F)F (stereo partly drawn) [F180, 4-((Z)-3-(3-Chloro-4-(trifluoromethyl)phenyl)-1,4,4,4-tetrafluorobut-1-en-1-yl)-N—((R)-3-oxo-2-(2,2,2-trifluoroethyl)isoxazolidin-4-yl)-2-(trifluoromethyl)benzamide] | 50 to 100 | 50 to 100 | 80 to 100 | –
CN(CC(F)(F)F)C(=O)CNC(=O)c1ccc(/C(F)=C/C(c2ccc(F)c(Cl)c2)C(F)(F)F)cc1C(F)(F)F (stereo not drawn) [PF6, (Z)-4-(3-(3-Chloro-4-fluorophenyl)-1,4,4,4-tetrafluorobut-1-en-1-yl)-N-(2-(methyl(2,2,2-trifluoroethyl)amino]-2-oxoethyl)-2-(trifluoromethyl)benzamide] | 50 to 100 | 50 to 100 | 80 to 100 | A (80-100)
Cc1cc(C(/C=C(\F)c2ccc(C(=O)NC3(C(=O)N(C)CC(F)(F)F)CC3)c(C(F)(F)F)c2)C(F)(F)F)cc(Cl)c1Cl (stereo not drawn) [PF16, (Z)-4-(3-(3,4-Dichloro-5-methylphenyl)-1,4,4,4-tetrafluorobut-1-en-1-yl)-N-(1-(methyl(2,2,2-trifluoroethyl)carbamoyl)cyclopropyl)-2-(trifluoromethyl)benzamide] | 50 to 100 | 50 to 100 | 0 to 80 | A (80-100)
CN(CC(F)(F)F)C(=O)CNC(=O)c1ccc(/C(F)=C/C(c2ccc(Br)c(Cl)c2)C(F)(F)F)cc1C(F)(F)F (stereo not drawn) [PF24, (Z)-4-(3-(4-Bromo-3-chlorophenyl)-1,4,4,4-tetrafluorobut-1-en-1-yl)-N-(2-(methyl(2,2,2-trifluoroethyl)amino)-2-oxoethyl)-2-(trifluoromethyl)benzamide] | 50 to 100 | 50 to 100 | 80 to 100 | A (80-100)
O=C(NC1(C(=O)NCC(F)(F)F)CC1)c1ccc(/C(F)=C/C(c2ccc(Br)c(Cl)c2)C(F)(F)F)cc1C(F)(F)F (stereo not drawn) [PF27] | 50 to 100 | 50 to 100 | 80 to 100 | B (More than 0-Less than 80)
